The source of these data is patent US9701625B2, “Nitrone compounds and their use in personal care” (Dow Global Technologies LLC, priority 2014, dated 2017).

The nature of the assay: Oxygen Radical Absorbance Capacity (ORAC) protocol. The note with it: for TEAC: Trolox equivalent AO capacity calculated from ORAC values; for TEAC values compared to the compounds of the invention: in words. As for the experimental part: Antioxidant potential is evaluated using the Oxygen Radical Absorbance Capacity (ORAC) protocol. ORAC is a chemical in-vitro method based on the hydrogen atom transfer (HAT) mechanism (see N. Re et al., Free Radical Biology & Medicine, 26 (9/10), 1231 (1997)). ORAC measures antioxidant inhibition of peroxyl radical induced oxidations and thus reflects classical radical chain breaking antioxidant activity by H atom transfer. In this assay, the peroxyl radical reacts with a fluorescent probe to form a non-fluorescent product. This is quantitated using a fluorescence measurement. Antioxidant capacity is determined by decreased rate and amount of product formed over time. This assay depends upon the free radical damage to the fluorescent probe resulting in the change in its fluorescence intensity. The change of fluorescence intensity is an indicator of the degree of free radical damage. In the presence of an antioxidant, the inhibition of free radical damage is reflected in higher fluorescence intensity and can be measured as antioxidant capacity against the free radicals. The uniqueness of ORAC assay is that the reaction is driven to completion. This allows calculation of the area under the curve (AUC) and gives an absolute quantitation of antioxidancy as opposed to relative measurements in many other assays.
As noted, the longer it takes to observe a decrease in fluorescence, the higher the antioxidant (AO) potential. From the AUC for a given antioxidant, the AUC for blank is subtracted to give its ORAC value. The concentration of AO needed to give the same AUC values as Trolox is calculated and used to represent the Trolox equivalent AO Capacity (TEAC). Trolox is ((±)-6-Hydroxy-2,5,7,8-tetramethylchromane-2-carboxylic acid, CAS #53188-07-1), and is used as an internal control.
The ORAC test is conducted in the compounds of Table 1 above (inventive compounds) as well as to Vitamin C, Vitamin E, and the following comparative compounds:
The inventive nitrones in the ORAC test solutions were at a concentration of 30 micromolar, while the concentrations of Trolox, Vitamin C, Vitamin E, BHT, PBN+BHT, and VAL-IPHA were at 100 micromolar. The TEAC values calculated from the ORAC values are listed the Table 2.

The mark [1] stands for this setting: inventive nitrones at 30 micromolar.
[2] abbreviates: test concentration 100 micromolar.

In the case of `[O-]/[N+](=C\c1ccc(O)cc1)Cc1ccc(O)cc1` [compound 2], the TEAC under setting [1] is 2.94.

`CCCC/C=[N+](\[O-])C(C)C` [VAL-IPHA]: the “TEAC values compared to the compounds of the invention” value (“TEAC values compared to the compounds” below) is “not very high”. For the same molecule, the TEAC under setting [2] is reported as 0.18.

For the molecule Vitamin E, under setting [2], the TEAC is given as 0.13.

On to `Cc1cc(C(C)(C)C)c(O)c(C(C)(C)C)c1` [BHT], for which the “TEAC values compared to the compounds” value is reported as “not very high”. Besides, the TEAC under setting [2] is 0.11-0.21.

As for `O=C1O[C@H]([C@@H](O)CO)C(O)=C1O` [Vitamin C], the TEAC under setting [2] was 0.76.

Regarding `COc1cc(/C=[N+](\[O-])Cc2ccc(O)cc2O)ccc1O` [compound 1], the TEAC under setting [1] was 6.45.

For `CC(C)(C)/[N+]([O-])=C/c1ccccc1` [PBN], the “TEAC values compared to the compounds” value is listed as “not very high”.
